System: B*0702-transgenic mice
Details: mouse, in vivo, sc

With RPRWLDARV the “Average T cell response” value was 659 SFC/10^6 CD8^+.
